In PubChem BioAssay (NCI):
Where “and” joins values, the source holds several entries; their conditions need not be identical. Equal values may be shown once.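 In this assay, cells in 96-well plates receive the compound at five concentrations for 48 hours. Endpoints are linearly interpolated between the surrounding concentrations. GI50 marks 50% less growth. The concentration for full growth arrest is given as TGI.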

Assays:
Assay in all cases: growth of human tumour cells (NCI), 48 h
A498 renal = test system: A498 renal
ACHN renal = test system: ACHN renal
COLO 205 colon = test system: COLO 205 colon
EKVX NSCLC = test system: EKVX NSCLC
HOP-62 NSCLC = test system: HOP-62 NSCLC
NCI-H460 lung = test system: NCI-H460 lung
SK-MEL-28 melanoma = test system: SK-MEL-28 melanoma
SNB-75 CNS = test system: SNB-75 CNS
SW-620 colon = test system: SW-620 colon
UO-31 renal = test system: UO-31 renal

Row | Structure (SMILES) | TGI (A498 renal) | TGI (ACHN renal) | TGI (COLO 205 colon) | TGI (EKVX NSCLC) | TGI (HOP-62 NSCLC) [µM] | TGI (NCI-H460 lung) [µM] | TGI (SK-MEL-28 melanoma) | TGI (SNB-75 CNS) [µM] | TGI (SW-620 colon) | TGI (UO-31 renal) | GI50 (A498 renal) [µM] | GI50 (ACHN renal) [µM] | GI50 (EKVX NSCLC) [µM] | GI50 (HOP-62 NSCLC) [µM] | GI50 (SK-MEL-28 melanoma) [µM] | GI50 (UO-31 renal) [µM] | GI50 (COLO 205 colon) [µM] | GI50 (NCI-H460 lung) [µM] | GI50 (SNB-75 CNS) [µM] | GI50 (SW-620 colon) [µM]
1 | C=C(CCCCCCCCC)CC(=O)SCCNC(=O)CCNC(=O)C(O)C(C)(C)COP(=O)(O)OP(=O)(O)OCC1OC(n2cnc3c(N)ncnc32)C(O)C1OP(=O)(O)O (centres undefined) | > 100 µM | > 100 µM | > 100 µM | > 100 µM | > 85.7 | > 100 | 21.6 µM | 58.8 | > 100 µM | > 100 µM |  |  |  |  |  |  |  |  |  | 
2 | CCc1cccc(C(C)C)c1NC(=O)C(=O)CC(=O)c1c(C)n([O-])c2ccccc2[n+]1=O | > 100 µM | > 100 µM | > 100 µM | > 100 µM | > 100 | > 100 | > 100 µM | > 100 | > 100 µM | > 100 µM |  |  |  |  |  |  |  |  |  | 
3 | COc1cc(/C=C2\CCC/C(=C\c3cc(OC)c(O)c(OC)c3)C2=O)cc(OC)c1O | 3.21 µM and 4.81 µM | 2.31 µM and 3.94 µM | 73.8 µM and 32.8 µM | 75 µM and > 100 µM |  | 10.7 | 75 µM and 24.8 µM | > 100 | 75 µM and > 100 µM | 3.46 µM and 4.97 µM | 2.18 | 1.85 | 5.14 | 5.93 | 3.12 | 2.05 |  |  |  | 
4 | O=C(Nc1cccc([N+](=O)[O-])c1)C(=O)C(C(=O)c1ccccc1-c1ccccc1)C1OC(=O)c2ccccc21 (centres undefined) | 60.2 µM | > 100 µM | 38.1 µM | 59.1 µM | 33.9 | 88 | 67.6 µM | 64.8 | 73.6 µM | 51.8 µM |  |  |  |  |  |  |  |  |  | 
5 | Cc1c(S(C)(=O)=O)c(-c2cc(F)cc(N3CCN(c4ccc(NS(=O)(=O)c5ccc(N[C@H](CCN6CCC(C(=O)OCCCP(=O)(O)O)CC6)CSc6ccccc6)c(S(=O)(=O)C(F)(F)F)c5)cc4)CC3)c2)c(-c2ccc(Cl)cc2)n1C(C)C | > 100 µM | > 100 µM | > 100 µM | > 100 µM | > 100 | > 100 | > 100 µM | > 100 | > 100 µM | > 100 µM | > 100 | > 100 | > 100 | > 100 | > 100 | > 100 | > 100 | > 100 | > 100 | > 100
6 | CCCCC1CC(c2cccc([N+](=O)[O-])c2)=NO1 (centres undefined) | > 100 µM | > 100 µM | > 100 µM | > 100 µM | > 100 | > 100 | > 100 µM | > 100 | > 100 µM | > 100 µM |  |  |  |  |  |  |  |  |  | 
7 | CSC(CC(=O)O)C(=O)O (centres undefined) | > 100 µM | > 100 µM | > 100 µM | > 100 µM | > 100 | > 100 | > 100 µM | > 100 | > 100 µM | > 100 µM |  |  |  |  |  |  |  |  |  | 
8 | C=CCN(/C=C1/C(=O)O[C@H](COC)[C@@]2(C)C1=C(O)C(=O)C1=C2[C@H](OC(C)=O)C[C@]2(C)C(=O)CC[C@@H]12)CC=C | 0.103 µM | > 10 µM | > 10 µM | > 10 µM | > 10 | > 10 | > 10 µM | 0.816 | > 10 µM | > 10 µM | 0.0205 | 1.53 | 0.828 | 2.04 | 1.1 | 0.148 | 2.17 | 0.585 | 0.0364 | 2.17
9 | COc1ccc(C2SCC(=O)N2NC(=O)C(O)c2ccccc2)cc1OC (centres undefined) | > 100 µM | > 100 µM | > 100 µM | > 100 µM | > 100 | > 100 | > 100 µM | > 100 | > 100 µM | > 100 µM | > 100 | > 100 | > 100 | > 100 | > 100 | > 100 | > 100 | > 100 | > 100 | > 100
10 | O=C(/C=C/c1ccccc1)CC1OC(=O)c2ccccc21 (centres undefined) | > 100 µM | > 100 µM | > 100 µM | > 100 µM | > 100 | > 100 | > 100 µM | > 100 | > 100 µM | > 100 µM |  |  |  |  |  |  |  |  |  | 
11 | CC1CC2CC(=O)CC3(C1)C2CCCN3CCCO (centres undefined) | > 100 µM | > 100 µM | > 100 µM | > 100 µM | > 100 | > 100 | > 100 µM | > 100 | > 100 µM | > 100 µM |  |  |  |  |  |  |  |  |  | 
12 | Cc1ccc(-c2cc(-c3ccco3)c(C#N)c(=O)[nH]2)cc1 | > 100 µM | > 100 µM | > 100 µM | > 100 µM | > 100 | > 100 | > 100 µM | > 100 | > 100 µM | > 100 µM |  |  |  |  |  |  |  |  |  | 
13 | CCn1c(C(=O)N(C2CC2)C2CC2)cc2c3c(ncn3C)c(Nc3cc(C)n(C)n3)nc21 | > 100 µM | > 100 µM | > 100 µM | > 100 µM | > 100 | > 100 | > 100 µM | 32.5 | > 100 µM | > 100 µM |  | > 100 | > 100 | > 100 | > 100 | > 38.5 | > 100 | > 100 | 1.26 | > 100
14 | CN(C)c1ccc([O-])cc1.CN(C)c1ccc([O-])cc1.CN(C)c1ccc([O-])cc1.CN(C)c1ccc([O-])cc1.[Ti+4] | > 100 µM | > 100 µM | > 100 µM | > 100 µM | > 100 | > 100 | > 100 µM | > 100 | > 100 µM | > 100 µM | 19.4 | 56.3 | > 100 | > 100 | > 100 | > 100 | 85.3 | 37.4 | 27.2 | 69.9
15 | Cc1ccc(S(=O)(=O)NCCNC2=CC(=O)c3nc4ccccc4c4ccnc2c34)cc1 | 53.1 µM | 97 µM | 52.2 µM | 89 µM | 61.3 | 56.5 | 57.9 µM | 41.3 | 97.2 µM | > 100 µM | 24.1 | 22.3 | 32.3 | 20.6 | 26.7 | 24.3 | 14.3 | 15.7 | 18.3 | 19.6
16 | COC(=O)C1C(O)CC(c2ccccn2)N(Cc2ccccc2)C1c1ccccn1 (centres undefined) | > 100 µM | > 100 µM | > 100 µM | > 100 µM | > 100 | > 100 | > 100 µM | > 100 | > 100 µM | > 100 µM |  |  |  |  |  |  |  |  |  | 
17 | C[C@H](NC(=O)[C@@H]1CSSC[C@@H](NC(=O)c2nc3ccccc3cc2O)C(=O)NCC(=O)N1C)c1ccccc1 | 33.5 µM | 12.8 µM | 2.34 µM | 11.8 µM | 20.7 | 7.98 | 9.83 µM | 43.1 | 6.26 µM | 13.3 µM | 15 | 4.63 | 3.48 | 11.6 | 0.906 | 5.76 | 0.963 | 1.25 | 7.62 | 1.85
18 | CC(=O)N[C@@H]1C(O)CN2C(=O)C(=O)O[C@H](C(O)CO)[C@@H]12 (some centres undefined) | > 100 µM | > 100 µM | > 100 µM | > 100 µM | > 100 | > 100 | > 100 µM | > 100 | > 100 µM | > 100 µM |  |  |  |  |  |  |  |  |  | 
19 | CN1CCN(c2ccc(NC(=O)c3nc4ccc5[nH]ncc5c4c4c3CCCC4)cc2C(F)(F)F)CC1 | > 50 µM | 1.55 µM | 1.68 µM | 8.62 µM | 1.89 | 1.83 | 1.71 µM | 12.1 | 2.2 µM | 1.65 µM | > 50 | 0.857 | 1.44 | 0.918 | 0.941 | 0.843 | 0.84 | 0.956 | 5.5 | 0.947
20 | Cc1ccc(/C(=N\N=C(N)N)c2ccccc2)cc1 | 1.02 µM | 14.8 µM | 0.714 µM | 26 µM | 14.3 | 3.19 | 15.4 µM | 4.94 | 19.1 µM | 17.1 µM | 0.272 | 0.777 | 0.998 | 0.672 | 0.535 | 1.12 | 0.282 | 0.33 | 0.288 | 0.418
21 | CC(C)CNCC(O)COc1ccc(C(C)(C)c2ccc(OCC(O)CNCC(C)C)cc2)cc1 (centres undefined) | 25.1 µM | 3.41 µM | 3.24 µM | 17.8 µM | 11.7 | 4.11 | 3.69 µM | 18.2 | 3.46 µM | 2.89 µM | 11.3 | 1.82 | 3.78 | 2.92 | 1.8 | 1.53 | 1.59 | 1.97 | 4 | 1.72
